Assay results as given in ChEMBL document CHEMBL1177704, “Unexpected reaction of 2-alkylsulfanylimidazoles to imidazol-2-ones: pyridinylimidazol-2-ones as novel potent p38alpha mitogen-activated protein kinase inhibitors” (J Med Chem, 2010).

How the values were obtained:
Blood = assay: Antiinflammatory activity in human whole blood assessed as inhibition of LPS-stimulated TNFalpha release after 15 mins by ELISA; type: functional, tissue-based; conditions: 0.25 h
[1] = target: Mitogen-activated protein kinase 14 (Homo sapiens, UniProt Q16539); assay: Inhibition of p38alpha
Mitogen-activated protein kinase 14, sequence (Q16539 whole entry): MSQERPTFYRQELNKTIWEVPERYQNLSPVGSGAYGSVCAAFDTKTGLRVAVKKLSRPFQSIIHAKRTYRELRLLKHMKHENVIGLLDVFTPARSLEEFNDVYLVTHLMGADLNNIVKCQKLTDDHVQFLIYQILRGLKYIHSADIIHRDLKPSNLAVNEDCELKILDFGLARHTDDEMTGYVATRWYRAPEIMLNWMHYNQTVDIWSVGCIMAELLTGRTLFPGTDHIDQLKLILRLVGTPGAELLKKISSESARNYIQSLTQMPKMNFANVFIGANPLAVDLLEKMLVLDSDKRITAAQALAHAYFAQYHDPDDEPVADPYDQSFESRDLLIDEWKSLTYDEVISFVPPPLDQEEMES

| Structure (SMILES) | IC50 (Blood) | IC50 [1] |
| --- | --- | --- |
| C[S+]([O-])c1ccc(-c2nc(-c3ccc(F)cc3)c(-c3ccncc3)[nH]2)cc1 (configuration not stated) [SB-203580] | 1760 nM | – |
| C[C@@H](Nc1cc(-c2[nH]c(=O)[nH]c2-c2ccc(F)cc2)ccn1)c1ccccc1 | – | 324 nM |
| CC(C)[C@H](C)Nc1cc(-c2[nH]c(=O)[nH]c2-c2ccc(F)cc2)ccn1 | 381 nM | 49 nM |
| O=c1[nH]c(-c2ccncc2)c(-c2ccc(F)cc2)[nH]1 | – | 468 nM |
| O=c1[nH]c(-c2ccc(F)cc2)c(-c2ccnc(N[C@H]3CC[C@H](O)CC3)c2)[nH]1 | 2920 nM | 23 nM |
